In patent publication US20240336604A1 (THE UNITED STATES OF AMERICA, AS REPRESENTED BY THE …, priority 2021, published 2024):
Several values for one entry are separate records, joined by “and”; a condition that tells them apart may be missing. Equal entries are not always repeated.

Columns and labels:
[1] = target: T1, D3 DAR (Homo sapiens, UniProt P35462); assay: Go BRET activation assay, D3 DAR; format: cell-based; conditions: EC80 DA (30 nM); for Emax: 5 min, read-out: D3 Go BRET Imax
Protocol: Briefly, HEK293T cells transiently expressing either the D2 DAR or D3 DAR and GαoA-Rluc8, untagged-β1, and mVenus-γ2 were harvested with EBSS, plated in 96-well white plates at 20,000 cells/well in DPBS and incubated at RT for 45 min. […] BRET signal was determined by quantifying and calculating the ratio of the light emitted by mVenus (525 nm) over that emitted by RLuc8 (485 nm) using a PHERAstar FSX Microplate Reader (BMG Labtech).

[2] = target: D2 DAR (Homo sapiens, UniProt P14416); assay: DiscoverX D2 DAR β-arrestin recruitment assay; format: cell-based; parameters: host or cells: CHO; conditions: for D2 DAR Imax / IC50: EC80 concentration of DA (1 μM); for antagonism of dopamine activation of the D2 DAR: DiscoverX β-arrestin assay, FIG. 2B
D2 DAR, sequence (P14416 whole entry, the tested form may be a part): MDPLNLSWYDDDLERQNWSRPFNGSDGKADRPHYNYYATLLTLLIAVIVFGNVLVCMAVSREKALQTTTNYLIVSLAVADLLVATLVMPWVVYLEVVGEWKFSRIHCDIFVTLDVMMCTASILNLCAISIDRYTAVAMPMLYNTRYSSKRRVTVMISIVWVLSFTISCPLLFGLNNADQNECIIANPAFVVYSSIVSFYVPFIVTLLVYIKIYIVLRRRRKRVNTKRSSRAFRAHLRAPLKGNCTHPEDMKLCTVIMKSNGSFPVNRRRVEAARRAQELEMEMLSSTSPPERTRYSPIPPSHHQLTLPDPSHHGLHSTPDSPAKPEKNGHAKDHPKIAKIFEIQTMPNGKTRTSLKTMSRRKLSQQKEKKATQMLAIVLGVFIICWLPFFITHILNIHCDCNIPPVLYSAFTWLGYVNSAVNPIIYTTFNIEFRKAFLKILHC
Excerpt: For a secondary-screen and selectivity assays, DAR PathHunter®-arrestin GPCR cell lines from DiscoverX (Fremont, CA) were used. In the D2 DAR PathHunter®-arrestin GPCR cell line, the D2 DAR is overexpressed and fused with a small 42-amino acid fragment of β-galactosidase called ProLink™ on a CHO cellular background expressing a fusion protein of β-arrestin and a larger N-terminal deletion mutant of β-galactosidase (“enzyme acceptor”). When the D2 DAR is activated by dopamine, it stimulates binding of β-arrestin to the ProLink-tagged DAR and the two complementary parts of β-galactosidase form a functional enzyme. When substrate (PathHunter™ Detection reagent) is added, β-galactosidase hydrolyzes it and generates a chemiluminescent signal.

[3] = target: T1, D3 DAR; assay: DiscoverX D3 DAR β-arrestin recruitment assay; format: cell-based; parameters: host or cells: CHO; conditions: for Emax / D3 DAR Imax: Imax=maximum inhibition, EC80 DA (30 nM)
Excerpt: (§1) A D3 DAR β-arrestin cell line from DiscoverX (Fremont, CA) was used as described in the protocol below (Table 2). A CHO cell line engineered to overexpress the D3 DAR fused with a small 42-amino acid fragment of β-galactosidase called ProLink™ and a fusion protein consisting of β-arrestin and a larger N-terminal deletion mutant of β-galactosidase was used (DiscoverX catalogue number 93-0579C2). When the D3 DAR is activated by dopamine, it stimulates binding of β-arrestin to ProLink-tagged D3 DARs, and the two complementary parts of β-galactosidase form a functional enzyme. When substrate (PathHunter® Detection reagent, DiscoverX 93-0001) is added, β-galactosidase hydrolyzes it and generates a chemiluminescent signal.

[4] = target: T1, D3 DAR; assay: Functional curve-shift assays using the DiscoverX β-arrestin recruitment assay; format: cell-based; parameters: host or cells: CHO; conditions: for IC50: agonist dopamine, read-out: Functional IC50 for decreasing the Emax of dopamine; for mode of antagonism in curve-shift assays: versus agonist (dopamine, pramipexole)
Excerpt: To further assess the mechanism of action of Cmp. […] 1 (FIGS. 4B and 4D). […] Average curves are shown (mean±SEM from at least 3 experiments each performed in triplicate). […] In contrast, increasing concentrations of Cmp.
1. FIG. 6A-C panels show concentration-response curves of dopamine in the absence or presence of increasing concentrations of compound. Cmp. […] 18 (FIG. 6A), Cmp. 5 (FIG. 6B), and Cmp. 17 (FIG. 6C), respectively. Average curves are shown (mean±SEM from at least 3 experiments, each performed in triplicate).
as §1

[5] = target: T1, D3 DAR; assay: [3H]-methylspiperone radioligand binding assay; conditions: single high 40 μM concentration
Protocol: Compounds were tested for their ability to compete with the orthosteric radioligand [^3H]-methylspiperone for binding to the D3 DAR using HEK cells transiently transfected with the D3 DAR as described in the detailed protocol below presented in Table 5. Cells were cultured in Dulbecco's modified Eagle's Medium (Corning, catalogue no. 10-013) containing 10% FBS, 1,000 units/mL Penicillin, […] Streptomycin, 100 mM sodium pyruvate, 1 μg/mL Gentamicin, and […] G418. All cells were maintained at 37° C. in 5% CO2 and 90% humidity. For radioligand binding assays cells were removed mechanically using calcium-free Earle's balanced salt solution (EBSS). Intact cells were collected by centrifugation and then lysed with 5 mM Tris-HCl and 5 mM MgCl2 at pH 7.4. Homogenates were centrifuged at 30,000×g for 30 minutes. The membranes were re-suspended in EBSS (US Biological, catalogue no. E0249-05) pH 7.4 to a concentration of 16 μg/mL. For competition binding studies, membrane preparations were incubated for 90 minutes at room temperature with various concentrations of compound and a single concentration of [^3H]-methylspiperone (Perkin Elmer, NET856) in a reaction volume of […]. Non-specific binding was determined in the presence of 4 μM (+)-butaclamol (Sigma-Aldrich, catalogue no. D033). Bound ligand was separated from unbound by filtration through GF/C filters using a PerkinElmer cell harvester and quantified on a Top-count (PerkinElmer). Ki values were determined using Cheng-Prusoff equation from observed IC50 values and ligand Kd values from separate saturation experiments.

[6] = EC80 concentration of DA (30 nM), read-out: D3 DAR IC50
[7] = DiscoverX β-arrestin assay, FIG. 1A, 2A, read-out: IC50, inhibition of dopamine-stimulated β-arrestin recruitment to the D3 DAR

T1 sequence (P35462 whole entry): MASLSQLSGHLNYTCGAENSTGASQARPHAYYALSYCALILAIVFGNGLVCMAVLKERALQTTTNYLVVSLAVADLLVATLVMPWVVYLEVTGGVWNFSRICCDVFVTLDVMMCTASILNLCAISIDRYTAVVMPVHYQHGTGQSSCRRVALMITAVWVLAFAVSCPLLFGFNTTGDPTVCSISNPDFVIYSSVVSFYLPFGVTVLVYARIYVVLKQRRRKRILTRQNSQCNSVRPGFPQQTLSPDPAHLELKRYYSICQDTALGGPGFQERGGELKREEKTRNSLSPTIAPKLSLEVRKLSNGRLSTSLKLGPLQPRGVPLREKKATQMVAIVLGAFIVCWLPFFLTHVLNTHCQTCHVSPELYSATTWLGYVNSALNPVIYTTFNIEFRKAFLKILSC

| Emax [1] [%] | IC50 [1] [µM] | D2 DAR Imax [2] | IC50 [2] [µM] | IC50 [3, 6] [µM] | Emax [3] [%] | IC50 [4] [µM] | mode of antagonism in curve-shift assays [4] | IC50 [3, 7] | D3 Go BRET Imax [1] | D3 DAR Imax [3] | SMILES | antagonism of dopamine activation of the D2 DAR [2] | inhibition of [3H]-methylspiperone binding to the D3 DAR [5] |
| --- | --- | --- | --- | --- | --- | --- | --- | --- | --- | --- | --- | --- | --- |
| 80 to 100 | 1 to 10 | NA (“NA” indicates not active) | > 100 | < 10 | 80 to 100 | 2.3 | noncompetitive antagonism | – | – | – | Cc1[nH]c(C)c(S(=O)(=O)Nc2ccc(C(F)(F)F)c(Cl)c2)c1C(=O)N1CCCC1 [Cmp. 5] | – | – |
| 80 to 100 | > 50 | NA (“NA” indicates not active) | > 100 | < 10 | 80 to 100 | 3.6 | noncompetitive antagonism | – | – | – | Cc1[nH]c(C)c(S(=O)(=O)Nc2ccc(C(F)(F)F)c(Br)c2)c1C(=O)N1CCCC1 [Cmp. 18] | – | – |
| – | > 50 | NA (“NA” indicates not active) | > 100 | 10 to 50 | 80 to 100 | – | – | ~13 µM and ~15 µM | – | – | CCOC(=O)C1=NOC2(C1)C(=O)Nc1ccc(OC(F)(F)F)cc12 (racemic) [Cmp. 25, Ethyl 2-oxo-5-(trifluoromethoxy)-4′H-spiro[indoline-3,5′-isoxazole]-3′-carboxylate] | lacks ability to antagonize dopamine activation | neither compound exhibited measurable ability to inhibit the binding |
| – | – | NA (“NA” indicates not active) | > 100 | 10 to 50 | 80 to 100 | – | – | ~30 µM | – | – | Cc1cccc(CNC(=O)c2sc(=O)n(Cc3c(C)cccc3C)c2C)c1 [Cmp. 26] | lacks ability to antagonize dopamine activation | neither compound exhibited measurable ability to inhibit the binding |
| – | – | – | – | – | – | – | behaves in a competitive manner | – | – | – | CCN1CCCC1CNC(=O)c1cc(S(N)(=O)=O)ccc1OC (centres unmarked) [sulpiride, reference compound] | – | – |
| > 100 | 10 to 50 | NA (“NA” indicates not active) | > 100 | 10 to 50 | 80 to 100 | – | – | – | – | – | Cc1ccc(NS(=O)(=O)c2c(C)[nH]c(C)c2C(=O)N2CCC2)cc1Cl [compound 6] | – | – |
| – | > 50 | NA (“NA” indicates not active) | > 100 | 10 to 50 | 80 to 100 | – | – | – | – | – | Cc1ccc(NS(=O)(=O)c2c(C)[nH]c(C)c2C(=O)N2CCCC2)cc1C [compound 12] | – | – |
| – | > 50 | NA (“NA” indicates not active) | > 100 | < 10 | 80 to 100 | – | – | – | NA (NA means not active) | – | CCOC(=O)C1=NOC2(C1)C(=O)Nc1ccc(OC(F)(F)F)cc12 (centres unmarked) [compound 44] | – | – |
| > 100 | 10 to 50 | NA (“NA” indicates not active) | > 100 | 10 to 50 | 80 to 100 | – | – | – | – | – | Cc1[nH]c(C)c(S(=O)(=O)Nc2ccc(F)c(Cl)c2)c1C(=O)N1CCCC1 [compound 13] | – | – |
| – | > 50 | NA (“NA” indicates not active) | > 100 | 10 to 50 | 80 to 100 | – | – | – | – | – | O=C(c1c(S(=O)(=O)Nc2ccc(C(F)(F)F)c(Cl)c2)c[nH]c1C(F)(F)F)N1CCCC1 [compound 37] | – | – |
| > 100 | 10 to 50 | NA (“NA” indicates not active) | > 100 | 50 to 100 | – | – | – | – | – | Curve Incomplete | Cc1[nH]c(C)c(S(=O)(=O)Nc2ccc(C(F)(F)F)c(Cl)c2)c1C(=O)O [compound 22, 4-(N-(3-chloro-4-(trifluoromethyl)phenyl)sulfamoyl)-2,5-dimethyl-1H-pyrrole-3-carboxylic acid] | – | – |
| – | > 50 | NA (“NA” indicates not active) | > 100 | 50 to 100 | – | – | – | – | NA (NA means not active) | Curve Incomplete | Cc1ccc(CNS(=O)(=O)c2c(C)[nH]c(C)c2C(=O)N2CCCC2)cc1Cl [compound 9] | – | – |
| – | > 50 | NA (“NA” indicates not active) | > 100 | 50 to 100 | – | – | – | – | – | Curve Incomplete | Cc1[nH]c(C)c(S(=O)(=O)Nc2ccc(C(F)(F)F)c(Cl)c2)c1C(=O)N1CCNCC1.Cl [compound 20, N-(3-chloro-4-(trifluoromethyl)phenyl)-2,5-dimethyl-4-(piperazine-1-carbonyl)-1H-pyrrole-3-sulfonamide] | – | – |
| > 100 | 1 to 10 | NA (“NA” indicates not active) | > 100 | < 10 | 80 to 100 | – | – | – | – | – | [2H]C1([2H])CCC([2H])([2H])N1C(=O)c1c(C)[nH]c(C)c1S(=O)(=O)Nc1ccc(C(F)(F)F)c(Cl)c1 [compound 23] | – | – |
| > 100 | 10 to 50 | NA (“NA” indicates not active) | > 100 | < 10 | 80 to 100 | – | – | – | – | – | CCNC(=O)c1c(C)[nH]c(C)c1S(=O)(=O)Nc1ccc(C(F)(F)F)c(Cl)c1 [compound 33, 4-(N-(3-chloro-4-(trifluoromethyl)phenyl)sulfamoyl)-N-ethyl-2,5-dimethyl-1H-pyrrole-3-carboxamide] | – | – |
| 80 to 100 | 1 to 10 | NA (“NA” indicates not active) | > 100 | 10 to 50 | 80 to 100 | – | – | – | – | – | Cc1[nH]c(C)c(S(=O)(=O)Nc2ccc(C3CC3)c(Cl)c2)c1C(=O)N1CCC(F)(F)C1 [compound 36, N-(3-chloro-4-cyclopropylphenyl)-4-(3,3-difluoropyrrolidine-1-carbonyl)-2,5-dimethyl-1H-pyrrole-3-sulfonamide] | – | – |
| > 100 | 1 to 10 | NA (“NA” indicates not active) | > 100 | < 10 | 80 to 100 | – | – | – | – | – | Cc1ccc(NS(=O)(=O)c2c(C)[nH]c(C(F)(F)F)c2C(=O)N2CCCC2)cc1Cl [compound 38] | – | – |
